From ChEMBL document CHEMBL5046231, “Modulation of Naturally Occurring Linear Dipeptide Chirality to Reduce the Affinity for Oligopeptide Transporter 1 and Increase Intestinal Stability for an Enhanced Colon-Targeting Effect in the Treatment of Inflammatory Bowel Disease: An Application of trans-4-l-Hydroxyprolyl-l-serine” (J Med Chem, 2022)
The source made the active and inactive calls. The calls are words filed in the database; no cut-off is given here.

Assays:
[1] = test system: Mus musculus; assay: Antiinflammatory activity in DSS-induced C57BL/6 mouse model of colitis assessed as decrease in […] level 25 to 100 mg/kg, po administered via gavage twice a day for 10 days; assay type: functional, organism-based; conditions: dose 25-100 mg/kg, time 10.0 day
[2] = test system: Mus musculus; assay: Anti-colitis activity against DSS-induced C57BL/6 mouse model of colitis assessed as restoration of intestinal barrier function by measuring fold increase in FITC-dextran level in plasma at 25 mg/kg, po administered via gavage twice a day for 10 days followed by FITC-dextran addition and measured after 4 hrs; assay type: functional; conditions: time 10 day
[3] = Tmax in DSS-induced colitis C57BL/6 mouse model at 25 mg/kg, po measured up to 6 hrs by UPLC-MS/MS analysis; assay type: ADME, organism-based; conditions: in vivo
[4] = Cmax in DSS-induced colitis C57BL/6 mouse model at 25 mg/kg, po measured up to 6 hrs by UPLC-MS/MS analysis; assay type: ADME, organism-based; parameters: route oral, dose 25 mg/kg, time <=6; conditions: in vivo
[5] = Stability in simulated intestinal fluid at pH 6.8 assessed as half life measured up to 12 hrs by HPLC analysis; assay type: ADME
[6] = test system: Mus musculus; assay: Anti-colitis activity against DSS-induced colitis in C57BL/6 mouse model assessed as assessed as recovery of body weight at 25 mg/kg, po administered via gavage twice daily for 10 days; assay type: functional, organism-based; conditions: time 10.0 day
[7] = Toxicity in healthy C57BL/6 mouse assessed as histological changes in kidney at 100 mg/kg, po administered for 10 days by H and E staining based assay; assay type: organism-based; conditions: in vivo, 240 h, time 10 day
[8] = Metabolic stability in DSS-induced C57BL/6 mouse colon assessed as half life measured up to 12 hrs by HPLC analysis; assay type: ADME, tissue-based
[9] = test system: Mus musculus; assay: Anti-colitis activity against DSS-induced colitis in C57BL/6 mouse model assessed as decrease in MPO level in colon at 50 mg/kg, po administered via gavage twice a day for 10 days; assay type: functional; parameters: scale not given: the % may be the effect or the level left; conditions: time 10 day
[10] = biological target: T1, Solute carrier family 15 member 1 (Homo sapiens, UniProt P46059); assay: Substrate activity at PEPT1 in human Caco-2 cells assessed as inhibition of Gly-Sar substrate uptake by UPLC-MS/MS analysis; assay type: cell-based; conditions: human, caco-2
T1 sequence (P46059 whole entry): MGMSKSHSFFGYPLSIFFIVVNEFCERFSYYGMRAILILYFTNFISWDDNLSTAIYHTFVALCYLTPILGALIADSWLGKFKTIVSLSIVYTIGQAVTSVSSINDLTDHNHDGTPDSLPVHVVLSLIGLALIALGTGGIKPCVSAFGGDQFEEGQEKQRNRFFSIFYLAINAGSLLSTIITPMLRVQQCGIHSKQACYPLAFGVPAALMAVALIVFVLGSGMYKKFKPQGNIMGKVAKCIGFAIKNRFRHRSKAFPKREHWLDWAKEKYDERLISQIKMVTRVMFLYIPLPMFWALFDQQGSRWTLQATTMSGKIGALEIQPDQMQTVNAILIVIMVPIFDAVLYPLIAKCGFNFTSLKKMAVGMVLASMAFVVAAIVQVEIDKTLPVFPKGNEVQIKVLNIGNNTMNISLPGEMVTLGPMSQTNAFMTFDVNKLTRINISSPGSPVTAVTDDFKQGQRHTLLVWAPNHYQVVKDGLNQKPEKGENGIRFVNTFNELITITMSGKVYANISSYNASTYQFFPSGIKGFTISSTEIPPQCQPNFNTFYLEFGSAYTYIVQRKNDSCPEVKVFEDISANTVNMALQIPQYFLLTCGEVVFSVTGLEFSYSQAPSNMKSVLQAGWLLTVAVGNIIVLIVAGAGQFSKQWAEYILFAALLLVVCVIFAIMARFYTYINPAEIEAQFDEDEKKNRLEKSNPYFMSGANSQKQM

[11] = Metabolic stability in healthy C57BL/6 mouse liver assessed as half life measured up to 12 hrs by HPLC analysis; assay type: ADME, tissue-based
[12] = test system: Mus musculus; assay: Antiinflammatory activity in DSS-induced C57BL/6 mouse model of colitis assessed as increase in IL-10 level 25 to 100 mg/kg, po administered via gavage twice a day for 10 days; assay type: functional, organism-based; conditions: dose 25-100 mg/kg, time 10.0 day
[13] = Toxicity in healthy C57BL/6 mouse assessed as effect on colon length at 100 mg/kg, po administered for 10 days; assay type: organism-based; conditions: in vivo, 240 h, time 10 day
[14] = Metabolic stability in healthy C57BL/6 mouse plasma assessed as half life measured up to 12 hrs by HPLC analysis; assay type: ADME, cell-free
[15] = test system: Mus musculus; assay: Anti-colitis activity against DSS-induced C57BL/6 mouse model of colitis assessed as fold change in colon length at 25 to 100 mg/kg, po administered via gavage twice a day for 10 days relative to SASP; assay type: functional; conditions: dose 25-100 mg/kg; time 10 day
[16] = Chemical stability in phosphate buffer at pH 6.8 assessed as half life measured up to 12 hrs by HPLC analysis; assay type: physicochemical
[17] = Toxicity in healthy C57BL/6 mouse assessed as change in body weight at 100 mg/kg, po administered for 10 days; assay type: organism-based; conditions: in vivo, 240 h, time 10 day
[18] = test system: Mus musculus; assay: Anti-colitis activity against DSS-induced colitis in C57BL/6 mouse model assessed as increase in colon length at 25 mg/kg, po administered via gavage twice daily for 10 days; assay type: functional, organism-based; conditions: time 10.0 day
[19] = test system: Mus musculus; assay: Antiinflammatory activity in DSS-induced C57BL/6 mouse model of colitis assessed as decrease in IL-1beta level 25 to 100 mg/kg, po administered via gavage twice a day for 10 days; assay type: functional, organism-based; conditions: dose 25-100 mg/kg, time 10.0 day
[20] = Metabolic stability in healthy C57BL/6 mouse colonic flora homogenate assessed as half life measured up to 12 hrs by HPLC analysis; assay type: ADME
[21] = AUC (0 to 6 hrs) in healthy C57BL/6 mouse at 25 mg/kg, po measured up to 6 hrs by UPLC-MS/MS analysis; assay type: ADME, organism-based; parameters: route oral, dose 25 mg/kg, time <=6; conditions: in vivo
[22] = Metabolic stability in DSS-induced C57BL/6 mouse jejunum assessed as half life measured up to 12 hrs by HPLC analysis; assay type: ADME, tissue-based
[23] = Cmax in healthy C57BL/6 mouse at 25 mg/kg, po measured up to 6 hrs by UPLC-MS/MS analysis; assay type: ADME, organism-based; parameters: route oral, dose 25 mg/kg, time <=6; conditions: in vivo
[24] = Toxicity in healthy C57BL/6 mouse assessed as histological changes in heart at 100 mg/kg, po administered for 10 days by H and E staining based assay; assay type: organism-based; conditions: in vivo, 240 h, time 10 day
[25] = Toxicity in healthy C57BL/6 mouse assessed as histological changes in lung at 100 mg/kg, po administered for 10 days by H and E staining based assay; assay type: organism-based; conditions: in vivo, 240 h, time 10 day
[26] = Chemical stability in acetate buffer at pH 4.5 assessed as half life measured up to 12 hrs by HPLC analysis; assay type: physicochemical
[27] = Metabolic stability in DSS-induced C57BL/6 inflammatory mouse model colonic flora homogenate assessed as half life measured up to 12 hrs by HPLC analysis; assay type: ADME; conditions: C57BL/6, mouse
[28] = Tmax in healthy C57BL/6 mouse at 25 mg/kg, po measured up to 6 hrs by UPLC-MS/MS analysis; assay type: ADME, organism-based; conditions: in vivo
[29] = Stability in human Caco-2 cells homogenate assessed as half life measured up to 12 hrs by HPLC analysis; assay type: ADME, cell-based; conditions: Caco-2 cell homogenate
[30] = test system: Mus musculus; assay: Antiinflammatory activity in DSS-induced C57BL/6 mouse model of colitis assessed as decrease in TNF-alpha level 25 to 100 mg/kg, po administered via gavage twice a day for 10 days; assay type: functional, organism-based; conditions: dose 25-100 mg/kg, time 10.0 day

For O=C(O)[C@@H](CO)NC(=O)[C@H]1C[C@@H](O)CN1, the Activity [1] was “Active”, the “fold change (FC)” value [2] was 10.7 and the Tmax [3] was 4 h. For the same compound, the Cmax [4] was 24 µM, the half-life [5] was > 12 h and the Activity [6] was “Active”. For the same compound, the Activity [7] was “Non-Toxic”, the half-life [8] was > 12 h and the Activity [9] was 47.5%. For the same compound, the “inhibition (INH)” value [10] was “Not Active”, the half-life [11] was > 12 h and the Activity [12] was “Active”. The Activity [13] was “Non-Toxic”, the half-life [14] was > 12 h and the “fold change (FC)” value [15] was 1.2. The half-life [16] was > 12 h, the Activity [17] was “Non-Toxic” and the Activity [18] was “Active”. The Activity [19] was “Active”, the half-life [20] was > 12 h and the AUC [21] was 16.61 microM/L.hr. The half-life [22] was > 12 h, the Cmax [23] was 5.79 µM and the Activity [24] was “Non-Toxic”. For the same compound, the Activity [25] was “Non-Toxic”, the half-life [26] was > 12 h and the half-life [27] was > 12 h. For the same compound, the Tmax [28] was 4 h, the half-life [29] was > 12 h and the Activity [30] was “Active”.
